Values joined by “and” are separate entries in the source; they are usually repeats but may differ in a detail not shown here. Equal values may be shown once. Read-outs that look alike come from different tables or passages of the source.
Key:
[1] = test system: FGFR4-amplified Hep3B hepatocellular carcinoma cells; assay: Cell proliferation assay (SRB); format: cell-based; conditions: read-out: Cellular Anti-proliferative IC50, Hep3B
[2] = test system: FGFR2-amplified SUM52 breast cancer cells; assay: Cell proliferation assay (SRB); format: cell-based
[3] = test system: FGFR3-amplified SW780 bladder cancer cells; assay: Cell proliferation assay (SRB)
FGFR4 = molecular target: T1, FGFR4 (Homo sapiens, UniProt P22455); assay: Isolated enzyme FRET-based Z-Lyte kinase inhibition assay; format: biochemical; conditions: means from 3 independent experiments; read-out: Isolate Enzyme Inhibition IC50, FGFR4
T1 construct: purchased Invitrogen
Procedure: (§1) FGFR1-4 and the Z-Lyte Kinase Assay Kit were purchased from Invitrogen. The concentration gradients from 5.1×10^−11 to 1.0×10^−6 mol/L were used for all the test compounds. The experiments were performed according to the instructions of the manufacturer.
(§2) FGFR1-4 isolated enzyme activity was determined using the FRET-based Z-Lyte kinase inhibition assay. The data are the means from 3 independent experiments.

FGFR2 = molecular target: T2, FGFR2 (Homo sapiens, UniProt P21802); assay: as above; format: biochemical; conditions: means from 3 independent experiments; read-out: Isolate Enzyme Inhibition IC50, FGFR2
T2 construct: purchased Invitrogen
Procedure: as §1, §2

FGFR3 = molecular target: T3, FGFR3 (Homo sapiens, UniProt P22607); assay: as above; format: biochemical; conditions: means from 3 independent experiments; read-out: Isolate Enzyme Inhibition IC50, FGFR3
T3 construct: purchased Invitrogen
Procedure: as §1, §2

H520 cells = assay: Oxic and anoxic anti-proliferative activity of the prodrugs; conditions: for Hypoxic Cytotoxicity Ratio (HCR), H520: ratio of oxic and anoxic IC50
SW780 cells = assay: as above; format: cell-based; conditions: Homo sapiens, SW780; oxic conditions; read-out: Cellular Anti-proliferative IC50, SW780, Oxic
SUM52 cells = assay: as above; conditions: for Hypoxic Cytotoxicity Ratio (HCR), SUM52: ratio of oxic and anoxic IC50
[4] = test system: SW780 (FGFR3-amplified bladder cancer) xenograft; assay: Anti-tumour activity, SW780 xenograft; format: in vivo, NIH-III nude mice; conditions: 30 umol/kg, q3dx4, IP
Procedure: Specific pathogen-free homozygous female NIH-III nude mice (Charles River Laboratories, Wilmington, Mass.) were inoculated subcutaneously with a single cell suspension of SW780 cells (8×10^6 cells/100 μL with Matrigel; right flank) or SNU-16 cells (10×10^6 cells/100 μL; right flank). When tumour xenografts were established (typically 7-14 days for SW780 and 21-28 days for SNU-16) mice were randomized to treatment groups. Test compounds of the present invention were prepared in Water for Injection (WFI). Mice were dosed by intraperitoneal injection (0.01-0.03 ml/g) using the stated schedules and dose levels. […] Tumour size and body weights were measured at regular intervals. Tumour volume was calculated as […] (length×width^2)/6.

[5] = read-out: Cellular Anti-proliferative IC50, SUM52, 5 days drug exposure
[6] = read-out: Cellular Anti-proliferative IC50, SW780, 5 days drug exposure
[7] = read-out: Cellular Anti-proliferative IC50, H520, Oxic, oxic conditions
[8] = read-out: Cellular Anti-proliferative IC50, SUM52, Anoxic, 4 hours of anoxia, remainder of assay oxic
[9] = read-out: Cellular Anti-proliferative IC50, SUM52, Oxic, oxic conditions
[10] = read-out: Cellular Anti-proliferative IC50, H520, Anoxic, 4 hours of anoxia, remainder of assay oxic

T1 sequence (P22455 22-802): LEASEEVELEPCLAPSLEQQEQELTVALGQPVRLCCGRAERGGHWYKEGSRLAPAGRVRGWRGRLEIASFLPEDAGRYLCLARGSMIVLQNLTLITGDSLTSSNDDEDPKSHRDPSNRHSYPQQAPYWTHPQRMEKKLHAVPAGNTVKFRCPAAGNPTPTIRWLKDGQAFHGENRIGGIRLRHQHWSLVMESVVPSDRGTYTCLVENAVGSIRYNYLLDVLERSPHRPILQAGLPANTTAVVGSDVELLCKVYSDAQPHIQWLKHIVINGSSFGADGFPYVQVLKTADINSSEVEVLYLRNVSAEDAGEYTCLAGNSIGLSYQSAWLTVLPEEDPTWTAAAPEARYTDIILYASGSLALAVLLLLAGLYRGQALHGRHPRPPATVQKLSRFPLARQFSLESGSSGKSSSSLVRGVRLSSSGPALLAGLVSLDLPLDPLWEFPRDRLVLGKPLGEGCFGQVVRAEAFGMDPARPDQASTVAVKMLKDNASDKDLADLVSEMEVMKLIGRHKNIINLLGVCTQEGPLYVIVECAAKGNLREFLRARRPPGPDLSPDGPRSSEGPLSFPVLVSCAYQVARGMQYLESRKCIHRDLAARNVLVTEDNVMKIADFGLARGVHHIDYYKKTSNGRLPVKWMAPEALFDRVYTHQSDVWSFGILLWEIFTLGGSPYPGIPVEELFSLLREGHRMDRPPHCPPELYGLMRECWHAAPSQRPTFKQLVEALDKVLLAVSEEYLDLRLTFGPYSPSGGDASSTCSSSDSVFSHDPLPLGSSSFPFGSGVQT
T3 sequence (P22607 23-806): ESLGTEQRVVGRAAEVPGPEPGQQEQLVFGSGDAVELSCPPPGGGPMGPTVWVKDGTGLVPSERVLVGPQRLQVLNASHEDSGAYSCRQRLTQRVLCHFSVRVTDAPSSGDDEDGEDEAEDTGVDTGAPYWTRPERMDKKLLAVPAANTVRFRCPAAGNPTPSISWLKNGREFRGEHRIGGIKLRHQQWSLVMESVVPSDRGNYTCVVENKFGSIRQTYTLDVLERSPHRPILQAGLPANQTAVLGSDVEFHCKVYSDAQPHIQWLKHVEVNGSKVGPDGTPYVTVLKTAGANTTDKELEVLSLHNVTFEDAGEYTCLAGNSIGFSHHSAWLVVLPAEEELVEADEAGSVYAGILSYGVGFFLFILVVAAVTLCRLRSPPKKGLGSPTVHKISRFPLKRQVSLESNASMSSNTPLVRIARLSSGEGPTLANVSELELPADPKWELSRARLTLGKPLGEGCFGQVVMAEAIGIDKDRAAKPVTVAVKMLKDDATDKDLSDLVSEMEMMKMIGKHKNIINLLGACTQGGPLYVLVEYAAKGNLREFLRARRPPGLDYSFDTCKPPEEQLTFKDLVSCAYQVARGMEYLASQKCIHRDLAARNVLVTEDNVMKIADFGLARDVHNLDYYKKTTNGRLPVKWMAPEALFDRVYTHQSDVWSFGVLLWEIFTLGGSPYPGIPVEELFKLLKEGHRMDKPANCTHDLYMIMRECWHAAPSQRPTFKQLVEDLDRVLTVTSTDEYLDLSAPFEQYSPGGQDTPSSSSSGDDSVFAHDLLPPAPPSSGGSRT
T2 sequence (P21802 22-821): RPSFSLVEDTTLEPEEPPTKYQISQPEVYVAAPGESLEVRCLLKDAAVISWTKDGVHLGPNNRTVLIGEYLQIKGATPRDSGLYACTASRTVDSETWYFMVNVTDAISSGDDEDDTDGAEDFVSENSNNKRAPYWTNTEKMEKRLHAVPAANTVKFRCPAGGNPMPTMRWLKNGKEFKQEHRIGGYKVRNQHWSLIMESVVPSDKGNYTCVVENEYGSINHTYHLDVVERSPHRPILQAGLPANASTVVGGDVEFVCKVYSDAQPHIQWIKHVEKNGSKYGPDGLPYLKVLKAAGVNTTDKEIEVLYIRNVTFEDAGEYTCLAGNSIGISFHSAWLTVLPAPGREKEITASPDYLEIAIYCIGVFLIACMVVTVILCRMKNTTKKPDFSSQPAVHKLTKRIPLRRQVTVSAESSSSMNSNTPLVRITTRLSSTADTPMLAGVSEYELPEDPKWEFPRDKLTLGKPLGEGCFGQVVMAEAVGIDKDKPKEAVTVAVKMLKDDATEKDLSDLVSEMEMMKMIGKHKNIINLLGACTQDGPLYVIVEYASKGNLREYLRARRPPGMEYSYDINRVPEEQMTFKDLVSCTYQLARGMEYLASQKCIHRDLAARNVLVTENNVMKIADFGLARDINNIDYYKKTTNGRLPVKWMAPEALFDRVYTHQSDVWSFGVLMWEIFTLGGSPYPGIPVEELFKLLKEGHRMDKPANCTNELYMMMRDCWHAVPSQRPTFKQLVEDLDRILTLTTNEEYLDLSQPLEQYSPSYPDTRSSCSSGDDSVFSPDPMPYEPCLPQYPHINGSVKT

| SMILES | IC50 (FGFR4) | IC50 (FGFR3) | IC50 (H520 cells; [7]) | IC50 (SW780 cells) | Hypoxic Cytotoxicity Ratio (HCR), SUM52 (SUM52 cells) | IC50 (SUM52 cells; [8]) | IC50 (SUM52 cells; [9]) | anti-tumour activity (median tumour growth delay) [4] | also measured |
| --- | --- | --- | --- | --- | --- | --- | --- | --- | --- |
| CNc1ncc2c(n1)N([C@H]1CCCN(C(=O)/C=C/CN(C)C)C1)C(=O)N(c1c(Cl)c(OC)cc(OC)c1Cl)C2 [Compound 100, (S,E)-3-(2,6-dichloro-3,5-dimethoxyphenyl)-1-(1-(4-(dimethylamino)but-2-enoyl)piperidin-3-yl)-7-(methylamino)-3,4-dihydropyrimido[4,5-d]pyrimidin-2(1H)-one] |  |  |  |  |  |  |  |  | IC50 ([1]; Homo sapiens, Hep3B): 245 nM; IC50 [2, 5]: 3.3 nM; IC50 [3, 6]: 28 nM |
| CNc1ncc2c(n1)N([C@H]1CCCN(C(=O)/C=C/CN(C)C)C1)C(=O)N(c1c(Cl)c(OC)cc(OC)c1Cl)C2 [Compound 101, (S,E)-3-(2,6-dichloro-3,5-dimethoxyphenyl)-1-(1-(4-(dimethylamino)but-2-enoyl)piperidin-3-yl)-7-(methylamino)-3,4-dihydropyrimido[4,5-d]pyrimidin-2(1H)-one] | < 100 nM |  |  |  |  |  |  |  | IC50 [1]: 163 nM; IC50 [2, 5]: 9 nM; IC50 [3, 6]: 59 nM |
| CNc1ncc2c(n1)N([C@@H]1CCN(C(=O)/C=C/CN(C)C)C1)C(=O)N(c1c(Cl)c(OC)cc(OC)c1Cl)C2 [Compound 102, (R,E)-3-(2,6-dichloro-3,5-dimethoxyphenyl)-1-(1-(4-(dimethylamino)but-2-enoyl)pyrrolidin-3-yl)-7-(methylamino)-3,4-dihydropyrimido[4,5-d]pyrimidin-2(1H)-one] | > 1000 nM | 703 nM |  |  |  |  |  |  | IC50 ([1]; Homo sapiens, Hep3B): 1430 nM; IC50 (FGFR2): 15 nM; IC50 ([2]; SUM52, 120 h, read-out: Cellular Anti-proliferative IC50, SUM52, 5 days drug exposure): 51 nM; IC50 ([3]; Homo sapiens, SW780, 120 h, read-out: Cellular Anti-proliferative IC50, SW780, 5 days drug exposure): 700 nM |
| COc1cc(Nc2ncc3c(n2)N(C2CCN(C(=O)/C=C/CN(C)C)CC2)C(=O)N(c2c(Cl)c(OC)cc(OC)c2Cl)C3)ccc1F [Compound 118, (E)-3-(2,6-dichloro-3,5-dimethoxyphenyl)-1-(1-(4-(dimethylamino)but-2-enoyl)piperidin-4-yl)-7-((4-fluoro-3-methoxyphenyl)amino)-3,4-dihydropyrimido[4,5-d] pyrimidin-2(1H)-one] | < 100 nM and 9.6 nM | 2.4 nM |  |  |  |  |  |  |  |
| CNc1ncc2c(n1)N(CCCNC(=O)/C=C/CN(C)C)C(=O)N(c1c(Cl)c(OC)cc(OC)c1Cl)C2 [Compound 125, (E)-N-(3-(3-(2,6-dichloro-3,5-dimethoxyphenyl)-7-(methylamino)-2-oxo-3,4-dihydropyrimido[4,5-d]pyrimidin-1(2H)-yl)propyl)-4-(dimethylamino)but-2-enamide] | > 1000 nM | 51 nM |  |  |  |  |  |  | IC50 (FGFR2): 6.5 nM |
| CNc1ncc2cc(-c3c(Cl)c(OC)cc(OC)c3Cl)c(=O)n(C3CCN(C(=O)/C=C/C[N+](C)(C)Cc4c([N+](=O)[O-])ncn4C)CC3)c2n1.[Br-] [Compound 208, (E)-4-(4-(6-(2,6-dichloro-3,5-dimethoxyphenyl)-2-(methylamino)-7-oxopyrido[2,3-d]pyrimidin-8(7H)-yl)piperidin-1-yl)-N,N-dimethyl-N-((1-methyl-4-nitro-1H-imidazol-5-yl)methyl)-4-oxobut-2-en-1-aminium bromide] |  |  | 4150 nM | 2580 nM | 5 | 3 nM | 13 nM | significant anti-tumour activity | time for tumours to reach 4 times relative tumour volume (RTV4) ([4]; control 12 days): ~24 days |
| COc1cc(OC)c(Cl)c(-c2cc3cnc(NC(C)C)nc3n(C3CCN(C(=O)/C=C/C[N+](C)(C)Cc4c([N+](=O)[O-])ncn4C)CC3)c2=O)c1Cl.[Br-] [Compound 209, (E)-4-(4-(6-(2,6-dichloro-3,5-dimethoxyphenyl)-2-(isopropylamino)-7-oxopyrido[2,3-d]pyrimidin-8(7H)-yl)piperidin-1-yl)-N,N-dimethyl-N-((1-methyl-4-nitro-1H-imidazol-5-yl)methyl)-4-oxobut-2-en-1-aminium bromide] |  |  | 1480 nM | 1570 nM | 68 | 4 nM | 269 nM | significant anti-tumour activity | Hypoxic Cytotoxicity Ratio (HCR), H520 (H520 cells): 36; IC50 (H520 cells; [10]): 41 nM |
| COc1cc(OC)c(Cl)c(-c2cc3cnc(Nc4ccccc4)nc3n(C3CCN(C(=O)/C=C/C[N+](C)(C)Cc4c([N+](=O)[O-])ncn4C)CC3)c2=O)c1Cl.[Br-] [Compound 211, (E)-4-(4-(6-(2,6-dichloro-3,5-dimethoxyphenyl)-7-oxo-2-(phenylamino)pyrido[2,3-d]pyrimidin-8(7H)-yl)piperidin-1-yl)-N,N-dimethyl-N-((1-methyl-4-nitro-1H-imidazol-5-yl)methyl)-4-oxobut-2-en-1-aminium bromide] |  |  | 817 nM | 754 nM | 16 | 12 nM | 199 nM | significant anti-tumour activity | Hypoxic Cytotoxicity Ratio (HCR), H520 (H520 cells): 20; IC50 (H520 cells; [10]): 41 nM |
| COc1cc(OC)c(Cl)c(-c2cc3cnc(NC(C)C)nc3n(Cc3cccc(NC(=O)/C=C/C[N+](C)(C)Cc4c([N+](=O)[O-])ncn4C)c3)c2=O)c1Cl.[Br-] [Compound 213, (E)-4-((3-((6-(2,6-dichloro-3,5-dimethoxyphenyl)-2-(isopropylamino)-7-oxopyrido[2,3-d]pyrimidin-8(7H)-yl)methyl)phenyl)amino)-N,N-dimethyl-N-((1-methyl-4-nitro-1H-imidazol-5-yl)methyl)-4-oxobut-2-en-1-aminium bromide] |  |  |  |  | 5 | 7 nM | 40 nM | significant anti-tumour activity |  |

— patent publication US11192890B2, “FGFR kinase inhibitors and pharmaceutical uses” (AUCKLAND UNISERVICES LIMITED, priority 2017, dated 2021)
